Patent publication US10633419B2, “Immunomodulators” (BRISTOL-MYERS SQUIBB COMPANY, priority 2014, dated 2020)
pIC50: −log10 of the molar value. Positions of bridges follow the written chain, without caps; N, C: chain ends. Non-standard residues stand in square brackets, D forms with d. Residues, ends and D or L forms follow the SMILES beside them. *: point of attachment. X6 = O=C(O)CCCCCCCCCCCCCCCCC(=O)N[C@@H](CCC(=O)NCCCOCCOCCOCCCN*)C(=O)O; X13 = O=C(O)CCCCCCCCCCCCCCC(=O)N[C@@H](CCC(=O)NCCCOCCOCCOCCCN*)C(=O)O; Trp(1-CH2COOH) = N[C@@H](Cc1cn(CC(=O)O)c2ccccc12)C(=O)O; Phe(3,4,5-F3) = N[C@@H](Cc1cc(F)c(F)c(F)c1)C(=O)O; Phe(4-F) = N[C@@H](Cc1ccc(F)cc1)C(=O)O; d(cisHyp) = O=C(O)[C@H]1C[C@@H](O)CN1; Hyp = O=C(O)[C@@H]1C[C@@H](O)CN1; NHhexadecyl = CCCCCCCCCCCCCCCCN*; NMeF = CN[C@@H](Cc1ccccc1)C(=O)O; NMeE = CN[C@@H](CCC(=O)O)C(=O)O; NMeNle = CCCC[C@H](NC)C(=O)O; Pip = O=C(O)[C@@H]1CCCCN1; NMeA = CN[C@@H](C)C(=O)O; Dab = NCC[C@H](N)C(=O)O; Dap = NC[C@H](N)C(=O)O

What follows are molecules tested against T1, PD-L1 (Homo sapiens, UniProt Q9NZQ7) (assay: PD-1/PD-L1 Homogenous Time-Resolved Fluorescence (HTRF) binding assay (PD-1-Ig/PD-L1-His)). Details: inhibition of PD-1-Ig binding to PD-L1-TVMV-His; value given as range class; read-out: HTRF IC50.
T1 construct: hPDL1(19-239)-TVMV-His; made in house; host or cells: HEK293T
T1 sequence (Q9NZQ7 with tags, fused parts or gaps): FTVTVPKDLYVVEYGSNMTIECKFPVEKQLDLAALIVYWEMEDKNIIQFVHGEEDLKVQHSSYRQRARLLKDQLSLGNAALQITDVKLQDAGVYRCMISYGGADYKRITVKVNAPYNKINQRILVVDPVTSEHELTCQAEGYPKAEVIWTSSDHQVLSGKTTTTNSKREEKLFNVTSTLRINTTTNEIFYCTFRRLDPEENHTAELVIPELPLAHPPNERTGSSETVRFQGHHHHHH
Procedure, shortened: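 HTRF competition in dPBS with 0.1% BSA and 0.05% Tween-20: 20 nM PD-1-Ig added after 15 min compound pre-incubation with 10 nM PD-L1-His, then another 15 min. Signal (665/620 nm) after 30 min with APC anti-His (20 nM) and Eu anti-Ig (1 nM).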

pIC50	Compound
8.00 to 9.52	CCCC[C@H]1C(=O)N(C)[C@@H](CCCC)C(=O)N[C@@H](CCCNC(=N)N)C(=O)N[C@H](C(=O)NCC(=O)N[C@@H](Cc2cn(CC[C@H](NC(=O)CCCCCCCCCCCCCCC(=O)O)C(=O)O)nn2)C(N)=O)CSCC(=O)N[C@@H](Cc2ccc(O)cc2)C(=O)N(C)[C@@H](C)C(=O)N[C@@H](CC(N)=O)C(=O)N2CCC[C@H]2C(=O)N[C@@H](CN)C(=O)N[C@@H](CC(C)C)C(=O)N2C[C@H](O)C[C@H]2C(=O)N[C@@H](Cc2c[nH]c3ccccc23)C(=O)N[C@@H](CO)C(=O)N[C@@H](Cc2c[nH]c3ccccc23)C(=O)N1C [Example 14066]
8.00 to 9.52	CCCC[C@H]1C(=O)N(C)[C@@H](CCCC)C(=O)N[C@@H](CC(C)C)C(=O)N[C@H](C(=O)NCC(=O)N[C@@H](CC(=O)NCCCOCCOCCOCCCNC(=O)CC[C@H](NC(=O)CCCCCCCCCCCCCCCCC(=O)O)C(=O)O)C(=O)O)CSCC(=O)N[C@@H](Cc2ccc(F)cc2)C(=O)N2CCCC[C@H]2C(=O)N[C@@H](CC(=O)O)C(=O)N2CCC[C@H]2C(=O)N[C@@H](CN)C(=O)N[C@@H](CCC(=O)O)C(=O)N2C[C@H](O)C[C@H]2C(=O)N[C@@H](Cc2c[nH]c3ccccc23)C(=O)N[C@@H](CCN)C(=O)N[C@@H](Cc2cn(CC(=O)O)c3ccccc23)C(=O)N1C [Example 11266] ({CH2CO}-[Phe(4-F)][Pip]DP[Dap]E[Hyp]W[Dab][Trp(1-CH2COOH)][NMeNle][NMeNle]LCGD(X6)-OH; thioether N-14)
8.00 to 9.52	CCCC[C@H]1C(=O)N2C[C@H](O)C[C@@H]2C(=O)N[C@@H](CC(=O)O)C(=O)N[C@@H](C(C)C)C(=O)N(C)[C@@H](Cc2ccccc2)C(=O)N[C@@H](Cc2ccc(O)cc2)C(=O)N(C)[C@@H](CCC(=O)O)C(=O)N[C@@H](Cc2c[nH]c3ccccc23)C(=O)N[C@@H](Cc2ccc(O)cc2)C(=O)N[C@@H](CC(C)C)C(=O)N[C@H](C(=O)NCC(=O)NCC(=O)NCC(=O)N[C@@H](CCCCN)C(N)=O)CSCC(=O)N[C@@H](Cc2cc(F)c(F)c(F)c2)C(=O)N(C)[C@@H](Cc2ccccc2)C(=O)N1C [Example 3214] ({CH2CO}-[Phe(3,4,5-F3)][NMeF][NMeNle][d(cisHyp)]DV[NMeF]Y[NMeE]WYLCGGGK-NH2; thioether N-13)
5.80 to 7.00	CCCCCCCCCCCCCCCCNC(=O)CNC(=O)CNC(=O)[C@@H]1CSCC(=O)N[C@@H](Cc2ccc(O)cc2)C(=O)N(C)[C@@H](C)C(=O)N[C@@H](CC(N)=O)C(=O)N2CCC[C@H]2C(=O)N[C@@H](CCC(=O)O)C(=O)N[C@@H](CC(C)C)C(=O)N2C[C@H](O)C[C@H]2C(=O)N[C@@H](Cc2c[nH]c3ccccc23)C(=O)N[C@@H](CO)C(=O)N[C@@H](Cc2c[nH]c3ccccc23)C(=O)N(C)[C@@H](CCCC)C(=O)N(C)[C@@H](CCCC)C(=O)N[C@@H](CCCNC(=N)N)C(=O)N1 [Example 11109] ({CH2CO}-Y[NMeA]NPEL[Hyp]WSW[NMeNle][NMeNle]RCGG-NHhexadecyl; thioether N-14)
7.00 to 8.00	CCCC[C@H]1C(=O)N(C)[C@@H](CCCC)C(=O)N[C@@H](CC(C)C)C(=O)N[C@H](C(=O)NCC(=O)N[C@@H](CCC(=O)NCCCOCCOCCOCCCNC(=O)CC[C@H](NC(=O)CCCCCCCCCCCCCCC(=O)O)C(=O)O)C(=O)O)CSCC(=O)N[C@@H](Cc2ccc(O)cc2)C(=O)N(C)[C@@H](C)C(=O)N[C@@H](CC(N)=O)C(=O)N2CCC[C@H]2C(=O)N[C@@H](CN)C(=O)N[C@@H](CC(C)C)C(=O)N2C[C@H](O)C[C@@H]2C(=O)N[C@@H](Cc2c[nH]c3ccccc23)C(=O)N[C@@H](CCN)C(=O)N[C@@H](Cc2cn(CC(=O)O)c3ccccc23)C(=O)N1C [Example 11159] ({CH2CO}-Y[NMeA]NP[Dap]L[d(cisHyp)]W[Dab][Trp(1-CH2COOH)][NMeNle][NMeNle]LCGE(X13)-OH; thioether N-14)
